Results as given in PMC5365662, “A Short Double-Stapled Peptide Inhibits Respiratory Syncytial Virus Entry and Spreading” (Antimicrobial Agents and Chemotherapy, 2017).
Bridge positions count the residues as written; N and C are the ends. Square brackets hold non-standard residues; d marks the D form. Peptide text beside a SMILES is read from it. R8 = C=CCCCCCC[C@@](C)(N)C(=O)O; R5 = C=CCCC[C@@](C)(N)C(=O)O; S5 = C=CCCC[C@](C)(N)C(=O)O

Key:
circular dichroism = conditions: 10 mM phosphate; pH 7.5; 25 °C; 50 uM
[1] = tested on: 5HB, a recombinant protein containing 3 HR1 domains covalently attached to 2 HR2 domains; conditions: for Kd: competition with fluorescently labeled T108 probe (2 nM), 5HB 50 nM, 10 min preincubation + 30 min room temperature, duplicates
Excerpt: The RSV HR2 region (residues 476 to 524) is a 49-amino-acid sequence that has been extensively characterized (Fig. 1). HR2 is a largely unstructured peptide in aqueous solution folding into an α-helix upon binding to trimeric HR1 coiled coils ([20]). […] We reduced HR2 (aa 483 to 516) into three short overlapping subdomains (subdomains 1 to 3) (Fig. 1). These peptides were scanned for various stapling combinations. […] Far-UV circular dichroism (CD) spectropolarimetry was used to investigate the effect of stapling on the α-helical content of the peptides. […] To assess the propensity of the stapled peptides to hinder the formation of the postfusion six-helix bundle required for viral cell entry, we used a 5-helix bundle (5HB) biochemical fluorescence polarization (FP) competition assay as previously described ([21], [22]).
The coding sequence of 5HB was designed as described previously and de novo synthesized by Genscript ([21]). The HR1 (aa 126 to 182) and HR2 (aa 476 to 524) coding sequences from wild-type RSV A2 strain F ([36]) were codon optimized for overexpression in Escherichia coli and cloned at NdeI/BamHI restriction sites of pET-15b to generate the expression plasmid for 5HB. The 5HB expression construct was transformed into Escherichia coli BL21(DE3). Cells were grown at 37°C to an optical density at 600 nm of 0.8 followed by induction with isopropyl-1-thio-β-D-galactopyranoside at a final concentration of 0.5 mM for 12 to 15 h. Cells were harvested by centrifugation, washed twice with PBS, and resuspended in 20 ml of PBS (pH 7.4), 500 mM NaCl, and 1% Triton X-100 supplemented with complete protease inhibitor. Cell suspensions were disrupted by sonication. Cell debris was removed through ultracentrifugation at 18,000 × g for 1 h at 4°C, and clarified cell lysate was mixed with 1 ml of nickel-nitrilotriacetic acid (Ni-NTA) agarose beads (Qiagen) preequilibrated with 20 ml of lysis buffer. The suspension was agitated for 1 h at 4°C and loaded onto a 5-ml polypropylene column (Qiagen). The column was washed twice with 8 ml of PBS (pH 7.4), 500 mM NaCl, 1% Triton X-100, and 100 mM imidazole. Proteins were eluted with 5 × 500 μl of a buffer containing PBS (pH 7.4), 300 mM imidazole, and 500 mM NaCl. The imidazole was removed by dialysis, and protein purity was assessed by SDS-polyacrylamide gel electrophoresis followed by Coomassie blue staining. Protein concentration was determined with the Qubit 2.0 Fluorometer (Life Technologies).
The T108 ([12]) peptide probe was synthesized by standard SPPS procedures using HCTU as a coupling reagent as described above. A 10-μl volume of recombinant 5HB protein in FP buffer (20 mM PBS [pH 7.4], 500 mM NaCl, 0.01% [vol/vol] Tween 20, and 0.05 mg/ml bovine gamma globulin) was preincubated for 10 min at room temperature with 10 μl of the appropriate concentration of the inhibitor, after which 10 μl of fluorescein isothiocyanate (FITC)-T106 was added and further incubated for 30 min at room temperature. The final concentrations of protein and probe were 50 nM and 2 nM, respectively. The fluorescence polarization assay was performed in 384-well plates using a Spectramax Paradigm (Molecular Devices), using excitation and emission wavelengths of 485 nm and 535 nm, respectively. The acquisition time was 700 ms, and the read height was 1 mm. All experiments were performed in duplicate. […] In order to ensure robust fitting for some fits, r0 was kept constant at the value measured for the free tracer in buffer.

[2] = tested on: rHRSV-mCherry in HEp-2 cells; assay: rHRSV-mCherry inhibition assay; type: cell-based, human respiratory syncytial virus; conditions: Table 3 (Ala scan); HEp-2 cells, rHRSV-mCherry MOI 0.2, 2-fold serial dilutions (11 dilutions), duplicate; ± SD of fit
Description: To measure the inhibitory activity of the peptide, the mCherry red fluorescence was quantified 48 h postinfection (p.i.).
Viral replication was quantified by measuring the mCherry fluorescence at 48 h p.i. and normalized based on the fluorescence of infected and untreated cells. (B) Cytotoxicity assay. HEp-2 cells were incubated in the presence of serial dilutions of peptides, and cell survival was quantified using the CellTiter-Glo Luminescent cell viability assay 24 h after the addition of the peptides. The signal was normalized based on the luminescence obtained for untreated cells. Error bars are standard deviations from duplicates.
HEp-2 cells were seeded at 5 × 10^4 cells per well in a 96-well plate the day before the infection. Peptides were 2-fold serially diluted in dimethyl sulfoxide (DMSO) (11 dilutions) and then further diluted in EMEM without phenol red and preincubated for 15 to 20 min with rHRSV-mCherry ([24]) at a final dilution with an MOI of 0.2 ([24]). The cells were incubated with the virus-peptide mixtures for a period of 1.5 to 2 h. The medium was then replaced by EMEM without phenol red containing 2% fetal bovine serum and the same concentration of peptide as the one that was used during the infection step. Plates were incubated 48 h at 37°C, and the mCherry fluorescence was measured using a spectrofluorometer (Tecan infinite M200PRO) with excitation and emission wavelengths of 580 and 620 nm, respectively. Relative fluorescence was normalized by the fluorescence of nontreated infected cells. Noninfected HEp-2 cells were used as standards for fluorescence background levels. Each experiment was performed in duplicate and repeated at least twice. The resulting inhibition curves were fitted in Igor Pro as described above.

SMILES | helicity (circular dichroism) | competition with binding of fluorescently labeled T108 to recombinant 5HB (in words) ([1]; Ala-scan variants, FP) | EC50 [2] | Kd [1]
CC[C@H](C)[C@H](NC(=O)[C@H](CCCCN)NC(=O)[C@H](CCC(=O)O)NC(C)=O)C(=O)N[C@@]1(C)CCCC=CCCC[C@@](C)(C(=O)N[C@@H](Cc2ccccc2)C(=O)N[C@@H](C)C(=O)N[C@@]2(C)CCCC=CCCC[C@@](C)(C(=O)N[C@@H](CC(C)C)C(=O)N[C@@H](CC(C)C)C(=O)N[C@@H](Cc3c[nH]cn3)C(=O)N[C@@H](CC(N)=O)C(=O)N[C@H](C(N)=O)C(C)C)NC(=O)[C@H](CC(=O)O)NC(=O)[C@H](CO)NC(=O)[C@H](CCCCN)NC2=O)NC(=O)[C@H](CC(C)C)NC(=O)[C@H](CO)NC(=O)[C@H](CCC(N)=O)NC1=O [Peptide I506A] (Ac-EKI[S5]QSL[S5]FA[S5]KSD[S5]LLHNV-NH2; staple 4-8, 11-15) | 22% | none of these variants were able to compete | 10.4 ± 2.97 µM | –
CC[C@H](C)[C@@H]1NC(=O)[C@H](Cc2ccccc2)NC(=O)[C@](C)(NC(=O)[C@H](CC(C)C)NC(=O)[C@H](CO)NC(=O)[C@H](CCC(N)=O)NC(=O)[C@H](CCC(=O)O)NC(C)=O)CCCCCCC=CCCC[C@@](C)(C(=O)N[C@@H](CC(C)C)C(=O)N[C@@H](CC(C)C)C(=O)N[C@@H](Cc2c[nH]cn2)C(=O)N[C@@H](CC(N)=O)C(=O)N[C@H](C(N)=O)C(C)C)NC(=O)[C@H](CC(=O)O)NC(=O)[C@H](CO)NC(=O)[C@H](CCCCN)NC(=O)[C@H](CCCNC(=N)N)NC1=O [Peptide 3e] (Ac-EQSL[R8]FIRKSD[S5]LLHNV-NH2; staple 5-12) | 17.5% | – | – | 71 ± 34 µM
CC[C@H](C)[C@H](NC(=O)[C@H](CO)NC(=O)[C@H](C)NC(=O)[C@H](CC(=O)O)NC(=O)[C@H](Cc1ccccc1)NC(=O)[C@H](CCC(=O)O)NC(=O)[C@H](CC(=O)O)NC(=O)[C@H](CO)NC(=O)[C@@H]1CCCN1C(=O)[C@H](Cc1ccccc1)NC(=O)[C@H](CCC(=O)O)NC(C)=O)C(=O)N[C@]1(C)CCCCCCC=CCCC[C@@](C)(C(N)=O)NC(=O)[C@H]([C@@H](C)CC)NC(=O)[C@H](CCCCN)NC(=O)[C@H](CCC(=O)O)NC(=O)[C@H](CC(N)=O)NC(=O)[C@H](C(C)C)NC(=O)[C@H](CCC(N)=O)NC1=O [Peptide 1c] (Ac-EFPSDEFDASI[R8]QVNEKI[S5]-NH2; staple 12-19) | 24.5% | – | – | 221 ± 33 µM
CC[C@H](C)[C@H](NC(=O)[C@H](CCCCN)NC(=O)[C@]1(C)CCCC=CCCC[C@](C)(NC(=O)[C@@H](NC(=O)[C@H](CO)NC(=O)[C@H](C)NC(=O)[C@H](CC(=O)O)NC(=O)[C@H](Cc2ccccc2)NC(=O)[C@H](CCC(=O)O)NC(=O)[C@H](CC(=O)O)NC(=O)[C@H](CO)NC(=O)[C@@H]2CCCN2C(=O)[C@H](Cc2ccccc2)NC(=O)[C@H](CCC(=O)O)NC(C)=O)[C@@H](C)CC)C(=O)N[C@@H](CCC(N)=O)C(=O)N[C@@H](C(C)C)C(=O)N[C@@H](CC(N)=O)C(=O)N1)C(=O)N[C@@H](CC(N)=O)C(N)=O [Peptide 1g] (Ac-EFPSDEFDASI[S5]QVN[S5]KIN-NH2; staple 12-16) | 46.8% | – | – | 191 ± 19 µM
CC[C@H](C)[C@H](NC(=O)[C@H](Cc1ccccc1)NC(=O)[C@H](C)NC(=O)[C@H](CC(C)C)NC(=O)[C@H](CO)NC(=O)[C@]1(C)CCCC=CCCC[C@@](C)(NC(=O)[C@H](CCC(=O)O)NC(=O)[C@H](CC(N)=O)NC(=O)[C@@H](NC(=O)[C@H](CCC(N)=O)NC(=O)[C@H](CO)NC(=O)[C@@H](NC(=O)[C@H](CCC(=O)O)NC(C)=O)[C@@H](C)CC)C(C)C)C(=O)N[C@@H]([C@@H](C)CC)C(=O)N[C@@H](CC(N)=O)C(=O)N1)C(=O)N[C@@H](CCCNC(=N)N)C(N)=O [Peptide 2c] (Ac-EISQVNE[R5]IN[S5]SLAFIR-NH2; staple 8-11) | 13.8% | – | – | 125 ± 16 µM
CC[C@H](C)[C@H](NC(=O)[C@H](Cc1ccccc1)NC(=O)[C@]1(C)CCCC=CCCCCCC[C@@](C)(NC(=O)[C@H](CC(N)=O)NC(=O)[C@@H](NC(=O)[C@H](CCC(N)=O)NC(=O)[C@H](CO)NC(=O)[C@@H](NC(=O)[C@H](CCC(=O)O)NC(C)=O)[C@@H](C)CC)C(C)C)C(=O)N[C@@H](CCCCN)C(=O)N[C@@H]([C@@H](C)CC)C(=O)N[C@@H](CC(N)=O)C(=O)N[C@@H](CCC(N)=O)C(=O)N[C@@H](CO)C(=O)N[C@@H](CC(C)C)C(=O)N1)C(=O)N[C@@H](CCCNC(=N)N)C(N)=O [Peptide 2e] (Ac-EISQVN[R8]KINQSL[S5]FIR-NH2; staple 7-14) | 27.4% | – | – | 76 ± 4 µM
CC[C@H](C)[C@H](NC(=O)[C@H](Cc1ccccc1)NC(=O)[C@H](C)NC(=O)[C@H](CC(C)C)NC(=O)[C@H](CO)NC(=O)[C@H](CCC(N)=O)NC(=O)[C@H](CC(N)=O)NC(=O)[C@@H](NC(=O)[C@]1(C)CCCC=CCCC[C@](C)(NC(=O)[C@H](CO)NC(=O)[C@@H](NC(=O)[C@H](CCC(=O)O)NC(C)=O)[C@@H](C)CC)C(=O)N[C@@H](C(C)C)C(=O)N[C@@H](CC(N)=O)C(=O)N[C@@H](CCC(=O)O)C(=O)N1)[C@@H](C)CC)C(=O)N[C@@H](CCCNC(=N)N)C(N)=O [Peptide 2a] (Ac-EIS[S5]VNE[S5]INQSLAFIR-NH2; staple 4-8) | 5.2% | – | – | 405 ± 121 µM
CC[C@H](C)[C@H](NC(=O)[C@H](Cc1ccccc1)NC(=O)[C@H](C)NC(=O)[C@H](CC(C)C)NC(=O)[C@H](CO)NC(=O)[C@H](CCC(N)=O)NC(=O)[C@H](CCC(=O)O)NC(C)=O)C(=O)N[C@@]1(C)CCCC=CCCC[C@@](C)(C(=O)N[C@@H](CC(C)C)C(=O)N[C@@H](CC(C)C)C(=O)N[C@@H](Cc2c[nH]cn2)C(=O)N[C@@H](CC(N)=O)C(=O)N[C@H](C(N)=O)C(C)C)NC(=O)[C@H](CC(=O)O)NC(=O)[C@H](CO)NC(=O)[C@H](CCCCN)NC1=O [Peptide 3b] (Ac-EQSLAFI[S5]KSD[S5]LLHNV-NH2; staple 8-12) | 23% | – | – | 55.9 ± 4 µM
CC[C@H](C)[C@H](NC(=O)[C@H](Cc1ccccc1)NC(=O)[C@H](C)NC(=O)[C@H](CC(C)C)NC(=O)[C@H](CO)NC(=O)[C@H](CCC(N)=O)NC(=O)[C@H](CCC(=O)O)NC(C)=O)C(=O)N[C@@H](CCCNC(=N)N)C(=O)N[C@@H](CCCCN)C(=O)N[C@@H](CO)C(=O)N[C@@H](CC(=O)O)C(=O)N[C@@]1(C)CCCC=CCCC[C@@](C)(C(=O)N[C@H](C(N)=O)C(C)C)NC(=O)[C@H](Cc2c[nH]cn2)NC(=O)[C@H](CC(C)C)NC(=O)[C@H](CC(C)C)NC1=O [Peptide 3c] (Ac-EQSLAFIRKSD[S5]LLH[S5]V-NH2; staple 12-16) | 18.7% | – | – | > 216 µM
